The values that follow come from patent US9648880B2, “Antifungal agents and uses thereof” (University of Massachusetts, priority 2012, dated 2017).

For assay [1], the system named is fluconazole-resistant C. albicans strains. Nature of the assay: fluconazole synergy assay. The class given is cell-based, Candida albicans. The following applies: 24 hrs, 37° C.; alamarBlue without wash. As for the experimental part:
FIGS. 10A-10B. […] Candida strains were identified from AIDS patients (3919, an initial progenitor isolate, and the subsequently isolated 4617 and 4639 strains). These were coincubated in the presence of either compounds #4, #Q1, fluconazole alone or a combination of fluconazole with either #4 or #Q1 for 24 hrs in polystyrene plates at 37° C. Viability was assessed using alamarBlue reagent as described (Youngsaye, supra).
Finally, we tested whether compound #4 would inhibit growth of fluconazole-resistant C. albicans strains in the presence of low levels of fluconazole, because that is the activity described for compound Q1 (Youngsaye supra). To measure cell viability rather than adhesion, we performed alamarBlue-based viability measurements without wash steps, using fluconazole-resistant C. albicans strains obtained from an AIDS patient who had been treated with fluconazole for oral candidaisis (Bachmann, 2002).
Assays to test for synergies between compound #4 and fluconazole were performed as described (Youngsaye, 2011, supra), except we used a 96-well rather than a 384-well format. […] At the end of 24 hours of incubation, viability was evaluated without washing steps, using alamarBlue as previously described (Youngsaye, 2011, supra).
Background: Alamar Blue is a resazurin reagent that responds to reducing activity.

Assay [2] has as its system C. albicans constitutively filamentous strains. Nature of the assay: hyphal development induced by multiple signals (mutant strains, GlcNAc, hydroxyurea). Also on record: genotoxic stress-induced filamentation: dose or concentration left out as unconfirmed. It is filed as cell-based, Candida albicans. As for the experimental part: FIGS. 30A-30E. Compound #4 inhibits hyphal development induced by multiple signals. FIG. 30A is a schematic diagram of some of the signaling pathways that govern hyphal gene expression. For simplicity, only those genes investigated in this figure are shown. FIG. 30B is a series of photomicrographs showing the effects of compound #4 on constitutively filamentous mutant strains in the cAMP-PKA pathway. Wild-type SC5314, efg1-T206E, ras1-G13V, and ADH1pr-gpa2-Q355L cells were grown in the presence of 1% DMSO or 50 μM compound #4 in Spider medium at 37° C. for 4 hrs, stained with Calcofluor white and photographed using DIC or fluorescent microscopy (20× objective). FIG. 30C is a series of two photomicrographs showing that Compound #4 blocks filamentation induced by GlcNAc or constitutive overexpression of the GlcNac-activated transcription factor Cph1. Images obtained as in FIG. 30B. […] SC5314 cells grown in YPD at 30° C. in the presence of 50 mM hydroxyurea (HU) in combination with either 1% DMSO or […]. Images obtained as in FIG. 30B. FIG. 30E is a series of photomicrographs showing that Compound #4 inhibits the hyperfilamentous growth of a strain that constitutively overexpresses the Gpr1 protein. Colonies were grown on solid Spider media agar overlayed with either 1% DMSO or 50 μM #4 and incubated at 37° C. for 3 days. Colony edges were imaged with a 10× objective.
To explore the mechanism of compound #4 action, we tested whether compound #4 would alter hyphal induction in mutants that hyperactivate the filamentation process. For example, hyphal induction by Spider media requires the cyclic AMP-protein kinase A (cAMP-PKA) pathway; FIG. 30A. Stimulation of this pathway drives PKA to phosphorylate transcription factor Efg1, activating Efg1 to increase expression of genes required for hyphal morphogenesis.
For example, the modified sugar N-acetyl-glucosamine (GlcNac) also stimulates hyphal morphogenesis, but does so independently of the cAMP-PKA pathway, instead activating the transcription factor Cph1.
In addition to nutrient-mediated signals, genotoxic stress promotes hyphal morphogenesis in C. albicans, and the DNA damage signaling kinase Rad53 is required for the hyphal transition.

Consider `Cc1ccc(C(=O)N2CCN(c3ccc([N+](=O)[O-])cc3)CC2)cc1Cl` [Compound 4], for which the “viability/growth of fluconazole-resistant strains, alone or with low fluconazole” value in assay [1] is on record as “did not affect fluconazole-resistant C. albicans viability, whether alone or in the presence of fluconazole”. The “hyphae driven by GlcNac-containing media or overexpression of Cph1” value in assay [2] was “also inhibits formation of hyphae in these cases”. Besides, the “morphology of hyperfilamentous cAMP-PKA pathway mutants (ras1-G13V, gpa2-Q355L, efg1-T206E)” value in assay [2] (50 μM, Spider medium 37° C., 4 hrs) is “retained a planktonic, budded morphology”. The “hyphal morphogenesis of cells overexpressing Gpr1” value in assay [2] (50 μM, solid Spider media, 37° C., 3 days) is reported as “blocked hyphal morphogenesis in these cells”. The genotoxic stress-induced filamentation entry in assay [2] (YPD 30° C.) was “form hyphae regardless of the presence of compound #4”.
